We go through 8 compounds from US4757139A, “5-fluoro-2'-deoxyuridine derivative, processes for preparing same and antitumor composition containing the same” (Teijin Limited, priority 1983, dated 1988).

The structures appear in SMILES notation. Where two headings read alike, the source gives them in different places.

For data set [1], the system named is mouse leukemia cells L1210. The experiment in a line: Antitumor activity against mouse leukemia L1210, intraperitoneal administration. The note with it: for ILS30 (dose required to increase lifespan 30%) / Max. ILS (%): i.p. once a day for 5 consecutive days. An excerpt: Antitumor activity of 5-fluoro-2'-deoxyuridine derivatives (in intraperitoneal administration)
Experiments were made with the 5-fluoro-2'-deoxyuridine derivatives of this invention in order to know its antitumor effect against mouse leukemia cells L1210 in comparison with its parent compound 5-fluoro-2'-deoxyuridine and other known antitumor agents.
BDF1 mice (male, 6-week-old, Ca 24 g, in groups of 5 mice), which were abdominally implanted with 10^5 cells of mouse leukemia L1210, which had been collected after 7-day cultivation in other mice, were used in the experiments.
The respective agents were given to the experimental mice intraperitoneally once a day for 5 consecutive days starting 24 hours after the implantation of tumor cells.
The antitumor effect of the respective agents were indicated by the rate of increase in the length of the survival period obtained from the groups given the agents in contrast with the length of the survival period of the control group (not given the agents).
The dose, which is required to increase the lifespan of the experimental mice 30% as compared with the control group, is indicated by ILS30 and the dose, which is required to effect the maximum increase of lifespan (Max. ILS(%)), is indicated by ILS max. ILS max./ILS30 is to represent the therapeutic index which indicates the safety of the agents.

Data set [2] can be described thus: Rate of hydrolysis of 5-fluoro-2'-deoxyuridine derivatives by esterase. The note with it: pig, liver esterase, pH 7.00, 37° C., read-out: t 1/2 (time for 1/2 of the derivative to be converted into parent compound). It is filed as in vitro ADME, porcine. How it is done:
Rate of hydrolysis of 5-fluoro-2'-deoxyuridine derivatives by esterase […] A 10 μg/ml isotonic solution of the experimental compound in a phosphate buffer (pH 7.00) was prepared and the […] (manufactured by Sigma) extracted from the porcine liver was added to the solution at 37° C. in such a way as to provide the enzyme concentration ranging from 0.03 units/ml to 150 units/ml. Then the sample (10 μl) was injected into an HPLC column periodically to determine the amount of 5-fluoro-2'-deoxyuridine release by the enzyme reaction.

The subject of the next data set is mouse leukemia L1210. The data set is described as follows: Antitumor activity against mouse leukemia L1210, oral administration. It counts as in vivo, BDF1 mice. How it is done:
(§1) The respective agents were administered orally three times, i.e. on the first day, third day, and fifth day, starting 24 hours after the implantation of tumor cells.

Data set [3] is described as follows: Change in body weight of L1210-bearing mice, oral administration. It counts as in vivo, BDF1 mice. The note with it: days 1-4. How it is done:
as §1

Where [4] appears, read: pH 7, enzyme concentration 6.0 units/ml.
The mark [5] stands for this setting: pH 7, enzyme concentration 150.0 units/ml.
Where [6] appears, read: days 1, 3, 5, dose 10 mg/kg/day.
The mark [7] stands for this setting: days 1, 3, 5, dose 30 mg/kg/day.
Setting [8] is: days 1, 3, 5, dose 100 mg/kg/day.

`CCCCCCCCCCCCCCCC(=O)OC[C@H]1O[C@@H](n2cc(F)c(=O)[nH]c2=O)C[C@@H]1OC(=O)CCCCCCCCCCCCCCC` [3',5'-dipalmitoyl-5-fluoro-2'-deoxyuridine, reference compound]: in data set [1] (L1210-bearing BDF1 mice), the “ILS30 (dose required to increase lifespan 30%)” value is 0.8 µmol·days/kg and the “Max. ILS (%)” value came to 55%. The “Therapeutic index (ILS max./ILS30)” value in data set [1] (mouse, in vivo, ip) is listed as 5.0.
On to `CCC(=O)OC[C@H]1O[C@@H](n2cc(F)c(=O)[nH]c2=O)C[C@@H]1OC(=O)CC` [3',5'-dipropanoyl-5-fluoro-2'-deoxyuridine], for which the half-life was determined as 47.4 min in data set [2] (pH 7, enzyme concentration 3.0 units/ml) and 24.2 min in data set [2] (setting [4]).
Consider `O=C(O)CCCC(=O)OC[C@H]1O[C@@H](n2cc(F)c(=O)[nH]c2=O)C[C@@H]1OC(=O)CCCC(=O)O` [3',5'-diglutaryl-5-fluoro-2'-deoxyuridine], for which the half-life in data set [2] (setting [5]) is 437 min.
As for `O=c1[nH]c(=O)n([C@H]2C[C@H](O)[C@@H](CO)O2)cc1F` [5-fluoro-2'-deoxyuridine], the “ILS30 (dose required to increase lifespan 30%)” value in data set [1] (L1210-bearing BDF1 mice) was 200 µmol·days/kg. Besides, the “Max. ILS (%)” value in data set [1] (L1210-bearing BDF1 mice) came out at 54%. Besides, the “Therapeutic index (ILS max./ILS30)” value in data set [1] (i.p., L1210-bearing BDF1 mice) stood at 2.0. Also, the “ILS (%)” value with mouse leukemia L1210 (setting [6]) is recorded as 15%; in the data set on mouse leukemia L1210 (setting [7]), 10%; in the data set with mouse leukemia L1210 (setting [8]), 15%; in the data set on mouse leukemia L1210 (days 1, 3, 5, dose 300 mg/kg/day), 10%. In addition, the “Change in body weight (1-4 d, g/mouse)” value in data set [3] (dose 10 mg/kg/day) was “+0.6 g/mouse”; in data set [3] (dose 30 mg/kg/day), “+1.8 g/mouse”; in data set [3] (dose 100 mg/kg/day), -4.2 g/mouse; in data set [3] (dose 300 mg/kg/day), -5.2 g/mouse.
Take `CCCC(=O)OC[C@H]1O[C@@H](n2cc(F)c(=O)[nH]c2=O)C[C@@H]1OC(=O)CCC` [3',5'-dibutyryl-5-fluoro-2'-deoxyuridine]: the half-life stood at 42.4 min in data set [2] (pH 7, enzyme concentration 0.75 units/ml) and 21.7 min in data set [2] (pH 7, enzyme concentration 1.50 units/ml).
In the case of `CCCCCCCCCCCCCC(=O)OC[C@H]1O[C@@H](n2cc(F)c(=O)[nH]c2=O)C[C@@H]1OC(=O)CCCCCCCCCCCCC` [3',5'-ditetradecanoyl-5-fluoro-2'-deoxyuridine], the “Max. ILS (%)” value in data set [1] (L1210-bearing BDF1 mice) came out at 61%. In the data set with mouse leukemia L1210 (L1210-bearing mice, result in words), the “Antitumor effect in oral administration compared with 5-fluoro-2'-deoxyuridine and 3',5'-dioctanoyl-5-fluoro-2'-deoxyuridine” value is on record as “much higher antitumor effect”. Besides, the “ILS (%)” value in the data set on mouse leukemia L1210 (days 1, 3, 5, dose 1 mg/kg/day) amounted to 3%; with mouse leukemia L1210 (days 1, 3, 5, dose 3 mg/kg/day), 3%; in the data set with mouse leukemia L1210 (setting [6]), 27%; in the data set with mouse leukemia L1210 (setting [7]), 33%; in the data set with mouse leukemia L1210 (setting [8]) it was 17%. Besides, the “Change in body weight (1-4 d, g/mouse)” value in data set [3] (dose 1 mg/kg/day) is recorded as “+2.2 g/mouse”; in data set [3] (dose 3 mg/kg/day) it was “+2.0 g/mouse”; in data set [3] (dose 10 mg/kg/day) it was -0.8 g/mouse; in data set [3] (dose 30 mg/kg/day) it was -1.4 g/mouse; in data set [3] (dose 100 mg/kg/day), -2.4 g/mouse.
In the case of `O=C(O)CCCCC(=O)OC[C@H]1O[C@@H](n2cc(F)c(=O)[nH]c2=O)C[C@@H]1OC(=O)CCCCC(=O)O` [3',5'-diadipoyl-5-fluoro-2'-deoxyuridine], the “Max. ILS (%)” value in data set [1] (L1210-bearing BDF1 mice) came out at 58%. Besides, the “Therapeutic index (ILS max./ILS30)” value in data set [1] (mouse, in vivo, ip) is reported as 20.0. Moreover, the half-life in data set [2] (setting [4]) was 439 min; in data set [2] (pH 7, enzyme concentration 12.0 units/ml), 216 min.
On to `O=C(O)CCC(=O)OC[C@H]1O[C@@H](n2cc(F)c(=O)[nH]c2=O)C[C@@H]1OC(=O)CCC(=O)O` [3',5'-disuccinyl-5-fluoro-2'-deoxyuridine], for which the half-life in data set [2] (setting [5]) is 3220 min.
